We go through 13 compounds from US20250009745A1, “CDK INHIBITOR” (SHANGHAI QILU PHARMACEUTICAL RESEARCH AND DEVELOPMENT …, priority 2021, published 2025).

Experiment in all cases: CDK enzymology experiment in vitro, capillary mobility shift assay (MSA)
Holding throughout (type): biochemical

One assay concerns the target T1, CDK4 (Homo sapiens, UniProt P11802).
T1 construct: purchased Carna Company
Particulars: read-out: CDK4 (nM) inhibitory IC50. The procedure, abridged:
(§1)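 Recombinant kinases tested against peptide substrates in 1× kinase buffer, with compound added as a 100-fold DMSO stock. Top concentration 1, 10 or 30 μM, 3-fold dilutions over 10 points, in duplicate. Substrate conversion read by Caliper EZ Reader, normalised to no-enzyme and no-compound controls, and IC50 fitted with a variable-slope log(inhibitor)–response model.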

A further assay concerns the target T2, CDK1 (Homo sapiens, UniProt P06493).
T2 construct: purchased Carna Company
Particulars: read-out: CDK1 (nM) inhibitory IC50. The procedure, abridged:
as §1

The next assay addresses T3, CDK7 (Homo sapiens, UniProt P50613).
T3 construct: purchased Carna Company
As to conditions: read-out: CDK7 (nM) inhibitory IC50. The gist of the method: as §1

For the next assay, the target named is T4, CDK2 (Homo sapiens, UniProt P24941).
T4 construct: purchased Carna Company
Particulars: read-out: CDK2 (nM) inhibitory IC50. The gist of the method:
as §1

For another assay, the target named is T5, CDK9 (Homo sapiens, UniProt P50750).
T5 construct: purchased Carna Company
T5 sequence (P50750 whole entry): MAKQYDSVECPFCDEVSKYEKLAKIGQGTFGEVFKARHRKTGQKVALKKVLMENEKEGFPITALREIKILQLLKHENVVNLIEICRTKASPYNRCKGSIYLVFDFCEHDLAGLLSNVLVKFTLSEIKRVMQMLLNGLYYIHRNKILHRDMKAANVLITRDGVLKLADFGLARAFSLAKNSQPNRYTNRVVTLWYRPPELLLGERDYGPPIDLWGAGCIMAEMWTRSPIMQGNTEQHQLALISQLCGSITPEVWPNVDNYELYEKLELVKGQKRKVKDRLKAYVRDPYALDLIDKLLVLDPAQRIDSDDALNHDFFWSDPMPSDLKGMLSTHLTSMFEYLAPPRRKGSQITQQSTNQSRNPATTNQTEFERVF
T5 sequence (O60563 whole entry partner): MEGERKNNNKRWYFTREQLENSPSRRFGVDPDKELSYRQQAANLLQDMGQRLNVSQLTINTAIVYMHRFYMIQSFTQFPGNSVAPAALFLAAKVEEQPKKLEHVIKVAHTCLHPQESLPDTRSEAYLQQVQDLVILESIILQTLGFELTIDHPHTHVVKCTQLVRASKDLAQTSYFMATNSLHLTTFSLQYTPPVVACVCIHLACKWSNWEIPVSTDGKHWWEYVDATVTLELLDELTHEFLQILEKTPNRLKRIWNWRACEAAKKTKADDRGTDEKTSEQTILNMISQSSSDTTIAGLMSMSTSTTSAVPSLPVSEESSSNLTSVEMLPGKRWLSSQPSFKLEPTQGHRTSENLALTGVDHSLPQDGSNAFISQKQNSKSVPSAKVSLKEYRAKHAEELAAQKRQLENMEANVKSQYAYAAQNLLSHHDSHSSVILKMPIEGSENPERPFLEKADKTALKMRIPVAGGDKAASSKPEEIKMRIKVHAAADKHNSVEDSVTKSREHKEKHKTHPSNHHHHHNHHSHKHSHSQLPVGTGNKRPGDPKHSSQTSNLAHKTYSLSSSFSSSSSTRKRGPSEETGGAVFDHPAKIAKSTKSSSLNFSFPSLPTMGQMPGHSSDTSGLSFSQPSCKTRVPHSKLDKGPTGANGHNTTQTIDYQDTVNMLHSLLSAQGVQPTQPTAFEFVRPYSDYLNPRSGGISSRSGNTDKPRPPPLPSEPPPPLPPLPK
As to conditions: read-out: CDK9 (nM) inhibitory IC50. The gist of the method: as §1

Another assay concerns the target T6, CDK6 (Homo sapiens, UniProt Q00534).
T6 construct: purchased Carna Company
As to conditions: read-out: CDK6 (nM) inhibitory IC50.

T6 sequence (Q00534 whole entry): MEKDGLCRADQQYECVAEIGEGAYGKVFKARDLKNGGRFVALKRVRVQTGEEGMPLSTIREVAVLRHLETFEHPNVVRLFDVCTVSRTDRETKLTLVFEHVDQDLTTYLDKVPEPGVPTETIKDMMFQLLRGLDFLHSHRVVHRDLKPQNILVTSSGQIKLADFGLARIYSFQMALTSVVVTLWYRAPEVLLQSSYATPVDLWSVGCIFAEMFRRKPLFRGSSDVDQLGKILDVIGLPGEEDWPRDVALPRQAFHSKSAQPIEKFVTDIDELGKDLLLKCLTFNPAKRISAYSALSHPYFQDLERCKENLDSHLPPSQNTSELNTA
T6 sequence (P30281 whole entry partner): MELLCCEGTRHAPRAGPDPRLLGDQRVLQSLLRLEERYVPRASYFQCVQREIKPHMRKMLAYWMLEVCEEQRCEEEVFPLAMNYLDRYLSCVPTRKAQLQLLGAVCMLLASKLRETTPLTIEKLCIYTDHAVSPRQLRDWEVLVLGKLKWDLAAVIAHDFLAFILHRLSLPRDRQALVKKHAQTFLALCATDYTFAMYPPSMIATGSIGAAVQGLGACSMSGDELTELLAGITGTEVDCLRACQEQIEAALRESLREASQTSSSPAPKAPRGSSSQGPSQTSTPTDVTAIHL
T2 sequence (P06493 whole entry): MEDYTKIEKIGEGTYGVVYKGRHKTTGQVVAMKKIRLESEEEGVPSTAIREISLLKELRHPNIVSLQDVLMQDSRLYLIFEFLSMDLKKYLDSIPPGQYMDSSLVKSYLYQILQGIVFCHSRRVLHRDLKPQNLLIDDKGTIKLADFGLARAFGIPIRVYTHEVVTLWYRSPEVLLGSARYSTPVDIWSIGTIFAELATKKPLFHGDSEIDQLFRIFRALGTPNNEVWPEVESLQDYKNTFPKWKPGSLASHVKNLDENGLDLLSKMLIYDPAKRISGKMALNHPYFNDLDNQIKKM
T2 sequence (P14635 whole entry partner): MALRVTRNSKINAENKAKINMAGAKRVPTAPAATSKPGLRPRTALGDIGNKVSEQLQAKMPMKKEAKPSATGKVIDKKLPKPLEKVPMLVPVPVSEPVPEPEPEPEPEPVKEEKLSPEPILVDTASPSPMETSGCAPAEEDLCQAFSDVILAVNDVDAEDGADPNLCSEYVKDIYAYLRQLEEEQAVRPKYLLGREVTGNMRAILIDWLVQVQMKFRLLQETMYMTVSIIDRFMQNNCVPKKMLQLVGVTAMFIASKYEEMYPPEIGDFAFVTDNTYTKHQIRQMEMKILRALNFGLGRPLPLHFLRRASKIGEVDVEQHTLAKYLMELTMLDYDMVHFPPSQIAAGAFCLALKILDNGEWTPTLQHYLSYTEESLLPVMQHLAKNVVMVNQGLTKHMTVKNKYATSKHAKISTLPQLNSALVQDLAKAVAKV
T1 sequence (P11802 whole entry): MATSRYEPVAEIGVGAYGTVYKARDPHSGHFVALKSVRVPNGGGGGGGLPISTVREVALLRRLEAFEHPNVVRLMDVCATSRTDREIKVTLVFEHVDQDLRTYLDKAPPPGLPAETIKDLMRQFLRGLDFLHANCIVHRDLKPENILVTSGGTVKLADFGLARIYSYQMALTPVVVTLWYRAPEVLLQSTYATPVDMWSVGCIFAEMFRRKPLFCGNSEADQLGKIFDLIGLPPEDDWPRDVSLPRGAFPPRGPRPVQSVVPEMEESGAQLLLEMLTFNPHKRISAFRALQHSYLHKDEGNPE
T1 sequence (P30281 whole entry partner): as the sequence (P30281 whole entry partner) above
T3 sequence (P50613 whole entry): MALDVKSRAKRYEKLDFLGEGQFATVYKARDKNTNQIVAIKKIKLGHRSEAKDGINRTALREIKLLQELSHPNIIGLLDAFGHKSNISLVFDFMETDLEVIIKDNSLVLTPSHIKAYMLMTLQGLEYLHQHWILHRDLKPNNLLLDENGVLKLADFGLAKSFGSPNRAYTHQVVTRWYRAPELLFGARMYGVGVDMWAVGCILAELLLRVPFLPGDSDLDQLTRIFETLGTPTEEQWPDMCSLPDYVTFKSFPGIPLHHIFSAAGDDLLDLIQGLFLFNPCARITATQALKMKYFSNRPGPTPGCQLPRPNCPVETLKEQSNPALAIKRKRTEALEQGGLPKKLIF
T3 sequence (P51946 whole entry partner): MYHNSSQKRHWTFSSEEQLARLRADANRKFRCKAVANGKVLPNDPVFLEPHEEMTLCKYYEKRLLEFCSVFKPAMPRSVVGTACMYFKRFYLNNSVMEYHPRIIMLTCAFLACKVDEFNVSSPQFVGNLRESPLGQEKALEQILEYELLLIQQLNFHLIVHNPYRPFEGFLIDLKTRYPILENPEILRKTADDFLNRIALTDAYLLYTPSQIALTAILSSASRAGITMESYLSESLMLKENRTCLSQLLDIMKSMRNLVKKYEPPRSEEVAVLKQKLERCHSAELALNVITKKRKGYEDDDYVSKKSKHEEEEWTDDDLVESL
T3 sequence (P51948 whole entry partner): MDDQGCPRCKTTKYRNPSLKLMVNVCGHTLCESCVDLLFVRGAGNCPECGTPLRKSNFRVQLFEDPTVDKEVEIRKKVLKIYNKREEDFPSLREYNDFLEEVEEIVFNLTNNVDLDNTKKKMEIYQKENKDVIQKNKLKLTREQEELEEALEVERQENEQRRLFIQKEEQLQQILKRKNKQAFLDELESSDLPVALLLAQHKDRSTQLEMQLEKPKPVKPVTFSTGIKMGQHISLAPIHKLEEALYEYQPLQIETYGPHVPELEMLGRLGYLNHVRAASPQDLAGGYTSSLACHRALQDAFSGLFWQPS

`O=S(=O)(c1ccc([C@@H]2CCCNC2)cc1)N1CCC(Nc2ncc(C(F)(F)F)c(O[C@H]3CCOC3)n2)CC1` (single isomer, unassigned) [Example 114]: the IC50 on CDK4 was 0.5 to 2.5 nM; at CDK1, 2.5 to 10 nM; at CDK7 it was 2.5 to 10 nM; on CDK2, less than 0.5 nM; on CDK9 it was 100 to 1000 nM; at CDK6 it was 0.5 to 2.5 nM.
In the case of `O=S(=O)(c1ccc(C2CCNCC2)c(F)c1)N1CCC(Nc2ncc(C(F)(F)F)c(O[C@H]3CCOC3)n2)CC1` [Compound 122], the IC50 on CDK4 is 0.5 to 2.5 nM; on CDK1 it was 10 to 50 nM; at CDK7, 10 to 50 nM; on CDK2 it was less than 0.5 nM; on CDK9 it was 100 to 1000 nM; at CDK6, 0.5 to 2.5 nM.
Take `CN(C)C1CCN(c2ccc(S(=O)(=O)N3CCC(Nc4ncc(C(F)(F)F)c(O[C@H]5CCOC5)n4)CC3)cc2)CC1` [Compound 132]: the IC50 at CDK4 is 0.5 to 2.5 nM; on CDK1, 2.5 to 10 nM; on CDK7, 10 to 50 nM; on CDK2 it was less than 0.5 nM; at CDK9, 100 to 1000 nM; on CDK6, 0.5 to 2.5 nM.
Turning to `O=S(=O)(c1ccc([C@H]2CCNC2)cc1)N1CCC(Nc2ncc(C(F)(F)F)c(O[C@H]3CCOC3)n2)CC1` (single isomer, unassigned) [Compound 152], the IC50 at CDK4 was 0.5 to 2.5 nM; on CDK1 it was 2.5 to 10 nM; at CDK7 it was 10 to 50 nM; at CDK2, 0.5 to 2.5 nM; at CDK9, 100 to 1000 nM; at CDK6, 0.5 to 2.5 nM.
Take `O=S(=O)(c1ccc(C2=CCCNC2)cc1)N1CCC(Nc2ncc(C(F)(F)F)c(O[C@H]3CCOC3)n2)CC1` [Example 112, (S)-4-((Tetrahydrofuran-3-yl)oxy)-N-(1-((4-(1,2,5,6-tetrahydropyridin-3-yl)phenyl)sulfonyl)piperidin-4-yl)-5-(trifluoromethyl)pyrimidin-2-amine]: the IC50 at CDK4 is 0.5 to 2.5 nM; on CDK1, 2.5 to 10 nM; on CDK7, 2.5 to 10 nM; on CDK2, less than 0.5 nM; on CDK9, 100 to 1000 nM; on CDK6, 0.5 to 2.5 nM.
`Cn1cc(-c2ccc(S(=O)(=O)N3CCC(Nc4ncc(C(F)(F)F)c(O[C@H]5CCOC5)n4)CC3)cc2)cn1` [Compound 142]: the IC50 on CDK4 was 0.5 to 2.5 nM; on CDK1 it was 0.5 to 2.5 nM; at CDK7 it was 2.5 to 10 nM; on CDK2, less than 0.5 nM; at CDK9 it was 10 to 50 nM; at CDK6, 0.5 to 2.5 nM.
In the case of `C[C@H]1CN(c2ccc(S(=O)(=O)N3CCC(Nc4ncc(C(F)(F)F)c(O[C@H]5CCOC5)n4)CC3)cc2)C[C@H](C)N1` [Example 168], the IC50 was 0.5 to 2.5 nM at CDK4; 2.5 to 10 nM at CDK1; 2.5 to 10 nM on CDK7; less than 0.5 nM at CDK2; 100 to 1000 nM at CDK9; less than 0.5 nM on CDK6.
Turning to `Cn1cnc(S(=O)(=O)N2CCC(Nc3ncc(C#N)c(NC4CCCC4)n3)CC2)c1` [Compound 34], the IC50 was 2.5 to 10 nM on CDK4; 10 to 50 nM at CDK1; 100 to 1000 nM at CDK7; 0.5 to 2.5 nM at CDK2; 100 to 1000 nM at CDK9; 10 to 50 nM on CDK6.
Turning to `O=S(=O)(c1ccc(N2CC3(CNC3)C2)cc1)N1CCC(Nc2ncc(C(F)(F)F)c(O[C@H]3CCOC3)n2)CC1` [Compound 144], the half-inhibitory concentration (IC50) at CDK4 is 0.5 to 2.5 nM; on CDK1 it was 2.5 to 10 nM; at CDK7 it was 2.5 to 10 nM; on CDK2 it was less than 0.5 nM; on CDK9 it was 100 to 1000 nM; on CDK6, 0.5 to 2.5 nM.
In the case of `O=S(=O)(c1ccc(N2CC[C@H](O)C2)cc1)N1CCC(Nc2ncc(C(F)(F)F)c(O[C@H]3CCOC3)n2)CC1` [Compound 141], the IC50 on CDK4 was 0.5 to 2.5 nM; on CDK1, 2.5 to 10 nM; at CDK7, 10 to 50 nM; at CDK2, less than 0.5 nM; on CDK9, 100 to 1000 nM; on CDK6, 0.5 to 2.5 nM.
On to `O=S(=O)(c1ccc(N2CCNCC2)nc1)N1CCC(Nc2ncc(C(F)(F)F)c(O[C@H]3CCOC3)n2)CC1` [Compound 153], for which the IC50 is 0.5 to 2.5 nM on CDK4; 2.5 to 10 nM on CDK1; 2.5 to 10 nM at CDK7; less than 0.5 nM on CDK2; 100 to 1000 nM at CDK9; 0.5 to 2.5 nM on CDK6.
For `Cn1cc(S(=O)(=O)N2CCC(Nc3ncc(C(F)(F)F)c(O[C@H]4CCOC4)n3)CC2)cn1` [Example 7, (S)—N-(1-((1-Methyl-1H-pyrazol-4-yl)sulfonyl)piperidin-4-yl)-4-((tetrahydrofuran-3-yl)oxy)-5-(trifluoromethyl)pyrimidin-2-amine], the IC50 fell in the range of 10 to 50 nM on CDK4; 10 to 50 nM at CDK1; 10 to 50 nM on CDK7; 0.5 to 2.5 nM on CDK2; 100 to 1000 nM at CDK9; 10 to 50 nM at CDK6.
Take `O=S(=O)(c1ccc(C2=CCNCC2)cc1)N1CCC(Nc2ncc(C(F)(F)F)c(O[C@H]3CCOC3)n2)CC1` [Example 100, (S)-4-((Tetrahydrofuran-3-yl)oxy)-N-(1-((4-(1,2,3,6-tetrahydropyridin-4-yl)phenyl)sulfonyl)piperidin-4-yl)-5-(trifluoromethyl)pyrimidin-2-amine]: the IC50 on CDK4 is 0.5 to 2.5 nM; on CDK1 it was 2.5 to 10 nM; at CDK7 it was 2.5 to 10 nM; at CDK2 it was less than 0.5 nM; at CDK9, 100 to 1000 nM; at CDK6, 0.5 to 2.5 nM.

The IC50 is the point on the concentration scale where inhibition reaches its midpoint.
